Data taken from patent US12077503B2, “Substituted cyclic amides and their use as herbicides” (FMC CORPORATION, priority 2015, dated 2024).

Assays:
Test in all cases: Test C preemergence
Type in all cases: in vivo
[1] = tested on: crabgrass, large (large crabgrass, Digitaria sanguinalis); settings: for Plant response rating, Crabgrass, Large: scale 0 to 100, 0 no effect, 100 complete control
From the text: (§1) Seeds of plant species selected from blackgrass (Alopecurus myosuroides), ryegrass, Italian (Italian ryegrass, Lolium multiflorum), wheat (winter wheat, Triticum aestivum), Galium (catchweed bedstraw, Galium aparine), corn (Zea mays), crabgrass, large (large crabgrass, Digitaria sanguinalis), foxtail, giant (giant foxtail, Setaria faberii), johnsongrass (Sorghum halepense), lambsquarters (Chenopodium album), morningglory (Ipomoea coccinea), nutsedge, yellow (yellow nutsedge, Cyperus esculentus), pigweed (Amaranthus retroflexus), ragweed (common ragweed, Ambrosia elatior), soybean (Glycine max), barnyardgrass (Echinochloa crus-galli), oilseed rape (Brassica napus), waterhemp (common waterhemp, Amaranthus rudis) and velvetleaf (Abutilon theophrasti) were planted into a blend of loam soil and sand and treated preemergence with test chemicals formulated in a non-phytotoxic solvent mixture which included a surfactant.
(§2) At the same time, plants selected from these crop and weed species and also Kochia (Kochia scoparia), oat, wild (wild oat, Avena fatua), and chickweed (common chickweed, Stellaria media) were planted in pots containing Sunshine Redi-Earth® planting medium comprising spaghnum peat moss, vermiculite, starter nutrients and dolomitic limestone and treated with postemergence applications of test chemicals formulated in the same manner. Plants ranged in height from 2 to 18 cm (1- to 4-leaf stage) for postemergence treatments. Treated plants and controls were maintained in a greenhouse for 13 to 15 d, after which time all species were compared to controls and visually evaluated. Plant response ratings, summarized in Table C, are based on a scale of 0 to 100 where 0 is no effect and 100 is complete control. A dash (-) response means no test result.

[2] = tested on: foxtail, giant (giant foxtail, Setaria faberii); settings: for Plant response rating, Foxtail, Giant: scale 0 to 100, 0 no effect, 100 complete control
From the text: as §1, §2

[3] = tested on: barnyardgrass (Echinochloa crus-galli); settings: for Plant response rating, Barnyardgrass: scale 0 to 100, 0 no effect, 100 complete control
From the text: as §1, §2

[4] = tested on: johnsongrass (Sorghum halepense); settings: for Plant response rating, Johnsongrass: scale 0 to 100, 0 no effect, 100 complete control
From the text: as §1, §2

[5] = tested on: blackgrass (Alopecurus myosuroides); settings: for Plant response rating, Blackgrass: scale 0 to 100, 0 no effect, 100 complete control
From the text: as §1, §2

[6] = tested on: wheat (winter wheat, Triticum aestivum); settings: for Plant response rating, Wheat: scale 0 to 100, 0 no effect, 100 complete control
From the text: as §1, §2

[7] = tested on: pigweed (Amaranthus retroflexus); settings: for Plant response rating, Pigweed: scale 0 to 100, 0 no effect, 100 complete control
From the text: as §1, §2

[8] = tested on: waterhemp (common waterhemp, Amaranthus rudis); settings: for Plant response rating, Waterhemp: scale 0 to 100, 0 no effect, 100 complete control
From the text: as §1, §2

[9] = tested on: morningglory (Ipomoea coccinea); settings: for Plant response rating, Morningglory: scale 0 to 100, 0 no effect, 100 complete control
From the text: as §1, §2

[10] = tested on: velvetleaf (Abutilon theophrasti); settings: for Plant response rating, Velvetleaf: scale 0 to 100, 0 no effect, 100 complete control
From the text: as §1, §2

[11] = tested on: Galium (catchweed bedstraw, Galium aparine); settings: for Plant response rating, Galium: scale 0 to 100, 0 no effect, 100 complete control
From the text: as §1, §2

soybean (Glycine max) = settings: for Plant response rating, Soybean: scale 0 to 100, 0 no effect, 100 complete control
From the text: as §1, §2

[12] = tested on: lambsquarters (Chenopodium album); settings: for Plant response rating, Lambsquarters: scale 0 to 100, 0 no effect, 100 complete control
From the text: as §1, §2

[13] = tested on: oilseed rape (Brassica napus); settings: for Plant response rating, Oilseed Rape: scale 0 to 100, 0 no effect, 100 complete control
From the text: as §1, §2

corn (Zea mays) = settings: for Plant response rating, Corn: scale 0 to 100, 0 no effect, 100 complete control
From the text: as §1, §2

[14] = tested on: nutsedge, yellow (yellow nutsedge, Cyperus esculentus); settings: for Plant response rating, Nutsedge, Yellow: scale 0 to 100, 0 no effect, 100 complete control
From the text: as §1, §2

[15] = tested on: ragweed (common ragweed, Ambrosia elatior); settings: for Plant response rating, Ragweed: scale 0 to 100, 0 no effect, 100 complete control
From the text: as §1, §2

[16] = tested on: ryegrass, Italian (Italian ryegrass, Lolium multiflorum); settings: for Plant response rating, Ryegrass, Italian: scale 0 to 100, 0 no effect, 100 complete control
From the text: as §1, §2

[17] = 31 g ai/ha, 0 is no effect, 100 is complete control

## CN1CC(c2cccc(OC(F)F)c2)C(C(=O)Nc2ccc(F)cc2F)C1=O (stereo not drawn) [Compound 617]
[1]; [17]
  Plant response rating (scale of 0 to 100), Crabgrass, Large: 95
[1]; 62 g ai/ha
  Plant response rating, Crabgrass, Large: 95
[1]; 125 g ai/ha
  Plant response rating, Crabgrass, Large: 100
[1]; 250 g ai/ha
  Plant response rating, Crabgrass, Large: 100
[2]; [17]
  Plant response rating (scale of 0 to 100), Foxtail, Giant: 90
[2]; 62 g ai/ha
  Plant response rating, Foxtail, Giant: 90
[2]; 125 g ai/ha
  Plant response rating, Foxtail, Giant: 95
[2]; 250 g ai/ha
  Plant response rating, Foxtail, Giant: 98
[3]; [17]
  Plant response rating (scale of 0 to 100), Barnyardgrass: 85
[3]; 62 g ai/ha
  Plant response rating, Barnyardgrass: 90
[3]; 125 g ai/ha
  Plant response rating, Barnyardgrass: 95
[3]; 250 g ai/ha
  Plant response rating, Barnyardgrass: 95
[4]; [17]
  Plant response rating (scale of 0 to 100), Johnsongrass: 25
[4]; 62 g ai/ha
  Plant response rating, Johnsongrass: 30
[4]; 125 g ai/ha
  Plant response rating, Johnsongrass: 65
[4]; 250 g ai/ha
  Plant response rating, Johnsongrass: 75
[5]; [17]
  Plant response rating (scale of 0 to 100), Blackgrass: 20
[5]; 62 g ai/ha
  Plant response rating, Blackgrass: 20
[5]; 125 g ai/ha
  Plant response rating, Blackgrass: 85
[5]; 250 g ai/ha
  Plant response rating, Blackgrass: 90
[6]; [17]
  Plant response rating (scale of 0 to 100), Wheat: 0
[6]; 62 g ai/ha
  Plant response rating, Wheat: 15
[6]; 125 g ai/ha
  Plant response rating, Wheat: 45
[6]; 250 g ai/ha
  Plant response rating, Wheat: 80
[7]; [17]
  Plant response rating (scale of 0 to 100), Pigweed: 10
[7]; 62 g ai/ha
  Plant response rating, Pigweed: 20
[7]; 125 g ai/ha
  Plant response rating, Pigweed: 45
[7]; 250 g ai/ha
  Plant response rating, Pigweed: 75
[8]; [17]
  Plant response rating (scale of 0 to 100), Waterhemp: 20
[8]; 62 g ai/ha
  Plant response rating, Waterhemp: 25
[8]; 125 g ai/ha
  Plant response rating, Waterhemp: 70
[8]; 250 g ai/ha
  Plant response rating, Waterhemp: 80
[9]; [17]
  Plant response rating (scale of 0 to 100), Morningglory: 0
[9]; 62 g ai/ha
  Plant response rating, Morningglory: 0
[9]; 125 g ai/ha
  Plant response rating, Morningglory: 25
[9]; 250 g ai/ha
  Plant response rating, Morningglory: 40
[10]; [17]
  Plant response rating (scale of 0 to 100), Velvetleaf: 10
[10]; 62 g ai/ha
  Plant response rating, Velvetleaf: 10
[10]; 125 g ai/ha
  Plant response rating, Velvetleaf: 20
[10]; 250 g ai/ha
  Plant response rating, Velvetleaf: 45
[11]; [17]
  Plant response rating (scale of 0 to 100), Galium: 0
[11]; 62 g ai/ha
  Plant response rating, Galium: 85
[11]; 125 g ai/ha
  Plant response rating, Galium: 85
[11]; 250 g ai/ha
  Plant response rating, Galium: 85
Soybean (Glycine max); [17]
  Plant response rating (scale of 0 to 100), Soybean: 0
Soybean (Glycine max); 62 g ai/ha
  Plant response rating, Soybean: 10
Soybean (Glycine max); 125 g ai/ha
  Plant response rating, Soybean: 0
Soybean (Glycine max); 250 g ai/ha
  Plant response rating, Soybean: 20
[12]; [17]
  Plant response rating (scale of 0 to 100), Lambsquarters: 30
[12]; 62 g ai/ha
  Plant response rating, Lambsquarters: 55
[12]; 125 g ai/ha
  Plant response rating, Lambsquarters: 70
[12]; 250 g ai/ha
  Plant response rating, Lambsquarters: 80
[13]; [17]
  Plant response rating (scale of 0 to 100), Oilseed Rape: 30
[13]; 62 g ai/ha
  Plant response rating, Oilseed Rape: 85
[13]; 125 g ai/ha
  Plant response rating, Oilseed Rape: 90
[13]; 250 g ai/ha
  Plant response rating, Oilseed Rape: 90
Corn (Zea mays); [17]
  Plant response rating (scale of 0 to 100), Corn: 0
Corn (Zea mays); 62 g ai/ha
  Plant response rating, Corn: 40
Corn (Zea mays); 125 g ai/ha
  Plant response rating, Corn: 75
Corn (Zea mays); 250 g ai/ha
  Plant response rating, Corn: 80
[14]; [17]
  Plant response rating (scale of 0 to 100), Nutsedge, Yellow: 0
[14]; 62 g ai/ha
  Plant response rating, Nutsedge, Yellow: 0
[14]; 125 g ai/ha
  Plant response rating, Nutsedge, Yellow: 20
[14]; 250 g ai/ha
  Plant response rating, Nutsedge, Yellow: 35
[15]; [17]
  Plant response rating (scale of 0 to 100), Ragweed: 10
[15]; 62 g ai/ha
  Plant response rating, Ragweed: 10
[15]; 125 g ai/ha
  Plant response rating, Ragweed: 40
[15]; 250 g ai/ha
  Plant response rating, Ragweed: 70
[16]; [17]
  Plant response rating (scale of 0 to 100), Ryegrass, Italian: 10
[16]; 62 g ai/ha
  Plant response rating, Ryegrass, Italian: 45
[16]; 125 g ai/ha
  Plant response rating, Ryegrass, Italian: 50
[16]; 250 g ai/ha
  Plant response rating, Ryegrass, Italian: 90
